Here are results for 13 compounds from US6706709B2, “Indolinone derivatives as protein kinase/phosphatase inhibitors” (Sugen, Inc., priority 2000, dated 2004).

pIC50: −log10 of the molar value.

For test [1], the target named is GST-Flk1 (UniProt P35918). As to the kind of experiment: GST-FLK-1 bioassay (bio flkGST). In kind it is biochemical. Here is the method: This assay analyzes the tyrosine kinase activity of GST-Flk1 on poly glu tyr peptides.
2. poly glu tyr 4:1, lyophilizate (Sigma Catalog # P0275). Prepare 1 mg/mL poly glu tyr in sterile PBS and store in 1 ml aliquots at −20° C.
3. Preparation of poly glu tyr (pEY) coated assay plates: Coat 2 μg/well of poly glu tyr (pEY) in 100 μL PBS at room temperature for 2 hours or at +4° C. overnight. Cover plates well to prevent evaporation.
4. PBS Buffer: To make 1 liter of a 1× working solution, mix […], 1.15 g NA2HPO4, 0.2 g KCl and 8 g NaCl in approx. 900 mL dH2O. When all reagents have dissolved, adjust the pH to 7.2 with HCl. Bring total volume to 1L with dH2O.
5. PBS-Tw Buffer: To 1L of PBS Buffer, add […] Tween-20. Stir until dissolved.
6. TBB-Blocking Buffer: To make one liter of a 1× working solution, mix 1.21 g TRIS, 8.77 g NaCl, 1 mL TWEEN-20 in approximately 900 mL dH2O. Adjust pH to 7.2 with HCl. Add 10 g BSA, stir to dissolve. Bring total volume to 1 L with dH2O. Filter to remove particulate matter.
7. 1% BSA in PBS: To make a 1× working solution, add 10 g BSA to approx. 990 mL PBS buffer, stir to dissolve. Adjust total volume to 1 L with PBS buffer, filter to remove particulate matter.
9. GST-Flk1cd purified from sf9 recombinant baculovirus transformation.
13. Kinase Dilution Buffer (KDB): Mix 10 mL Hepes (pH 7.5), 1 mL of 5 M NaCl, 40 μL of 100 mM NaVO4 and 0.4 mL of 5% BSA in dH2O with 88.56 mL of dH2O.
14. NUNC-96-well V bottom polypropylene plates Applied Scientific Catalog # AS-72092
15. EDTA: Mix 14.12 g ethylenediaminetetraacetic acid (EDTA) to approx. 70 mL dH2O. Add 10N NaOH until EDTA dissolves. Adjust pH to 8.0. Adjust total volume to 100 mL with dH2O.
16. 1° Antibody Dilution Buffer: Mix 10 mL of 5% BSA in PBS buffer with 89.5 mL TBSTw.
17. Anti-phosphotyrosine monoclonal conjugated to horseradish peroxidase (PY99 HRP, Santa Cruz Biotech).
18. 2,2′-Azino-bis(3-ethylbenzthiazoline-6-sulfonic acid (ABTS, Moss, Cat. No. ABST).
1. Coat Corning 96 well ELISA plates with 2 μg of polyEY peptide in sterile PBS as described in step 3 of Materials and Reagents.
2. Remove unbound liquid from wells by inverting plate. Wash once with TBSTw. Pat the plate on a paper towel to remove excess liquid.
3. Add 100 μL of 1% BSA in PBS to each well. Incubate, with shaking, for 1 hr. at room temperature.
5. Soak wells with 50 mM Hepes pH7.5 (150 μL/well).
6. Dilute test compound with dH2O/4% DMSO to 4 times the desired final assay concentration in 96-well polypropylene plates.
7. Add 25 μL diluted test compound to ELISA plate.
8. Add 25 μL of 40 mM MnCl2 with 4×ATP (2 μM) to all wells.
9. Add 25 μL 0.5 M EDTA to negative control wells.
10. Dilute GST-Flk1 0.005 μg (5 ng)/well in KDB. For 50 ml KDB add 100 μL of 0.050 mg/mL GST-Flk1 enzyme.
11. Add 50 μL of diluted enzyme to each well.
12. Incubate, with shaking, for 15 minutes at room temperature.
13. Stop reaction by adding 50 μL of 250 mM EDTA (pH 8.0).
14. Wash 3× with TBSTw and pat plate on paper towel to remove excess liquid.
15. Add 100 μL per well anti-phosphotyrosine HRP conjugate, 1:5,000 dilution in antibody dilution buffer. Incubate, with shaking for 90 min. at room temperature.
16. Wash as described above in step 14.
17. Add 100 μL of room temperature ABTS solution to each well.
18. Incubate, with shaking, for 10 to 15 minutes. Remove any bubbles.
19. Stop reaction by adding 20 μL of 10% SDS.
20. Read assay on Dynatech MR7000 ELISA reader: test filter at 410 nM; reference filter at 630 nM.

Test [2] concerns the target T1, EGF Receptor (Homo sapiens, UniProt P00533).
T1 construct: expressed in transfected cells; host or cells: NIH 3T3/C7 (mouse fibroblasts engineered to express human EGF-R)
As to the kind of experiment: bio EGF (EGF Receptor ELISA). Type of test: biochemical. Here is the method: EGF Receptor kinase activity in cells genetically engineered to express human EGF-R was measured as described below:
The following materials and reagents were used:
b. 05-101 (UBI) (a monoclonal antibody recognizing an EGFR extracellular domain).
c. Anti-phosphotyrosine antibody (anti-Ptyr) (polyclonal).
d. Detection antibody: Goat anti-rabbit lgG horse radish peroxidase conjugate, TAGO, Inc., Burlingame, Calif.
Keep solution in dark at 4° C. until used.
The following protocol was used:
1. […] Coated plates are good for up to 10 days when stored at 4° C.
2. On day of use, remove coating buffer and replace with blocking buffer (5% Carnation Instant Non-Fat Dry Milk in PBS). Incubate the plate, shaking, at room temperature (about 23° C. to 25° C.) for 30 minutes. Just prior to use, remove blocking buffer and wash plate 4 times with TBST buffer.
2. Choose dishes having 80-90% confluence for the experiment. Trypsinize cells and stop reaction by adding 10% CS DMEM medium. Suspend cells in DMEM medium (10% CS DMEM medium) and centrifuge once at 1000 rpm at room temperature for 5 minutes.
3. Resuspend cells in seeding medium (DMEM, 0.5% bovine serum), and count the cells using trypan blue. Viability above 90% is acceptable. Seed cells in DMEM medium (0.5% bovine serum) at a density of 10,000 cells per well, 100 μL per well, in a 96 well microtiter plate. Incubate seeded cells in 5% CO2 at 37° C. for about 40 hours.
1. Check seeded cells for contamination using an inverted microscope. Dilute drug stock (10 mg/ml in DMSO) 1:10 in DMEM medium, then transfer 5 μL to a test well for a final drug dilution of 1:200 and a final DMSO concentration of 1%. Control wells receive DMSO alone. Incubate in 5% CO2 at 37° C. for one hour.
2. Prepare EGF ligand: dilute stock EGF in DMEM so that upon transfer of 10 μL dilute EGF (1:12 dilution), 25 nM final concentration is attained.
3. Prepare fresh 10 ml HNTG* sufficient for 100 μL per well wherein HNTG* comprises: HNTG stock (2.0 mL), milli-Q H2O (7.3 mL), EDTA, 100 mM, pH 7.0 (0.5 mL), Na3VO4 0.5 M (0.1 mL) and Na4(P2O7), 0.2 M (0.1 mL).
5. After two hours incubation with drug, add prepared EGF ligand to cells, 10 μL per well, to yield a final concentration of 25 nM. Control wells receive DMEM alone. Incubate, shaking, at room temperature, for 5 minutes.
6. Remove drug, EGF, and DMEM. Wash cells twice with PBS. Transfer HNTG* to cells, 100 μL per well. Place on ice for 5 minutes. Meanwhile, remove blocking buffer from other ELISA plate and wash with TBST as described above.
7. With a pipette tip securely fitted to a micropipettor, scrape cells from plate and homogenize cell material by repeatedly aspirating and dispensing the HNTG* lysis buffer. Transfer lysate to a coated, blocked, and washed ELISA plate. Incubate shaking at room temperature for one hour.
8. Remove lysate and wash 4 times with TBST. Transfer freshly diluted anti-Ptyr antibody to ELISA plate at 100 μL per well. Incubate shaking at room temperature for 30 minutes in the presence of the anti-Ptyr antiserum (1:3000 dilution in TBST).
9. Remove the anti-Ptyr antibody and wash 4 times with TBST. Transfer the freshly diluted TAGO 30 anti-rabbit IgG antibody to the ELISA plate at 100 μL per well. Incubate shaking at room temperature for 30 minutes (anti-rabbit IgG antibody: 1:3000 dilution in TBST).
10. Remove detection antibody and wash 4 times with TBST. Transfer freshly prepared ABTS/H2O2 solution to ELISA plate, 100 μL per well. Incubate at room temperature for 20 minutes. ABTS/H2O2 solution: 1.2 μL 30% H2O2in 10 mL ABTS stock.
11. Stop reaction by adding 50 μL 5N H2SO4 (optional), and determine O.D. at 410 nm.
12. The maximal phosphotyrosine signal is determined by subtracting the value of the negative controls from the positive controls. The percent inhibition of phosphotyrosine content for extract-containing wells is then calculated, after subtraction of the negative controls.
A general note: In an ELISA, binding on a coated surface is turned into a signal by an enzyme label.

T1 sequence (P00533 25-1210): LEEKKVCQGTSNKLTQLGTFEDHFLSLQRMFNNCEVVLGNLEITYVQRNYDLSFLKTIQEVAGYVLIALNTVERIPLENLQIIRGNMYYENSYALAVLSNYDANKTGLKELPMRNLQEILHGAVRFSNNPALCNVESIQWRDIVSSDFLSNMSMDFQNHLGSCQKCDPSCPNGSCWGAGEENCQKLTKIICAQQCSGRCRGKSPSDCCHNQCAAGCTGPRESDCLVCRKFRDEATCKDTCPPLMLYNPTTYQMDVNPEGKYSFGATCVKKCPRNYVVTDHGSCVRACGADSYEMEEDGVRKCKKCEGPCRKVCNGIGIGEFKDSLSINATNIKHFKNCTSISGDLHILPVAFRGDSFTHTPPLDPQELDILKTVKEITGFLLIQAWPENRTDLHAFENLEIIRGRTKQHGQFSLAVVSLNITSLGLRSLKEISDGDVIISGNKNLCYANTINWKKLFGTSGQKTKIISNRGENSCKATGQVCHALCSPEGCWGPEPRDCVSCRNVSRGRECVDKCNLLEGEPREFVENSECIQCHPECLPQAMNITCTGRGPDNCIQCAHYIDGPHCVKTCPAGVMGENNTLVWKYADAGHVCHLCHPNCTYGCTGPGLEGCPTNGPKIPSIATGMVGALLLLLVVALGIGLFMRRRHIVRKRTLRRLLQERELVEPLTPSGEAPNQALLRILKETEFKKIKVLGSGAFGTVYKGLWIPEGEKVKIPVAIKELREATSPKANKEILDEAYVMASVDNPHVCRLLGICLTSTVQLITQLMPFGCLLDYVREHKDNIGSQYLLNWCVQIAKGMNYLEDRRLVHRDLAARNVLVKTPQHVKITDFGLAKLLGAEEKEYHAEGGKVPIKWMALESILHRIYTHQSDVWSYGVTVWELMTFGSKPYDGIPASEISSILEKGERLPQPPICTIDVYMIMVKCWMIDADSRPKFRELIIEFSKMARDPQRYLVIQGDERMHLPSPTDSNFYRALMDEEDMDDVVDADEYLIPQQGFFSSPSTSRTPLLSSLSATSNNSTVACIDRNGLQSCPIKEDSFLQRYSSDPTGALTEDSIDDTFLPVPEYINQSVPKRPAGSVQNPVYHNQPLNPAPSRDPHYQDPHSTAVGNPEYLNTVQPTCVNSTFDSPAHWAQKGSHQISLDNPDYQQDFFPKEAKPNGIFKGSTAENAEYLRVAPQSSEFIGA

A word on the pIC50: it is the negative decadic logarithm of the IC50, by convention in mol/L. `O=C1Nc2ccc(-c3ccccc3)cc2C1=Cc1cc2cc(OCCN3CCOCC3)ccc2[nH]1` [IN-032, 3-[5-(2-morpholin-4-yl-ethoxy)-1H-indol-2-ylmethylene]-5-phenyl-1,3-dihydro-indol-2-one]: the pIC50 in test [1] was 5.83; in test [2], less than 4.70.

`O=C1Nc2ccc(S(=O)(=O)Nc3ccccc3)cc2C1=Cc1cc2cc(OCCN3CCCC3)ccc2[nH]1` [IN-044, 2-oxo-3-[5-(2-pyrrolidin-1-yl-ethoxy)-1H-indol-2-ylmethylene]-2,3-dihydro-1H-indole-5-sulfonic acid phenylamide]: the figures for the negative logarithm of the IC50 (pIC50) in test [1] and in test [2] were 6.74 and 5.77, respectively.

Take `CN(C)CCOc1ccc2[nH]c(C=C3C(=O)Nc4ccc(Br)cc43)cc2c1` [IN-011, 5-bromo-3-[5-(2-dimethylamino-ethoxy)-1H-indol-2-ylmethylene]-1,3-dihydro-indol-2-one]: the pIC50 in test [1] is 6.28; in test [2] it was 5.87.

Take `CNS(=O)(=O)c1ccc2c(c1)C(=Cc1c[nH]c3ccccc13)C(=O)N2` [IN-068, 3-(1H-indol-3-ylmethylene)-2-oxo-2,3-dihydro-1H-indole-5-sulfonic acid methylamide]: the negative-log IC50 (pIC50) in test [1] was less than 4.70; in test [2], less than 4.00.

For `NS(=O)(=O)c1ccc2c(c1)C(=Cc1cc3cc(OCCN4CCOCC4)ccc3[nH]1)C(=O)N2` [IN-040, 3-[5-(2-morpholin-4-yl-ethoxy)-1H-indol-2-ylmethylene]-2-oxo-2,3-dihydro-1H-indole-5-sulfonic acid amide], the pIC50 is 6.68 in test [1] and less than 4.00 in test [2].

With `CCN(CC)CCOc1ccc2[nH]c(C=C3C(=O)Nc4cc(-c5ccccc5)ccc43)cc2c1` [IN-018, 3-[5-(2-diethylamino-ethoxy)-1H-indol-2-ylmethylene]-6-phenyl-1,3-dihydro-indol-2-one], the results for the pIC50 in test [1] and in test [2] were 5.27 and less than 4.00, respectively.

Consider `CCN(CC)CCCc1ccc2[nH]c(C=C3C(=O)Nc4ccc(-c5ccccc5)cc43)cc2c1` [IN-004, 3-[5-(3-diethylamino-propyl)-1H-indol-2-ylmethylene]-5-phenyl-1,3-dihydro-indol-2-one], for which the pIC50 was 6.33 in test [1] and 5.59 in test [2].

As for `O=C1Nc2cc(-c3cccnc3)ccc2C1=Cc1cc2cc(OCCN3CCCC3)ccc2[nH]1` [IN-025, 6-pyridin-3-yl-3-[5-(2-pyrrolidin-1-yl-ethoxy)-1H-indol-2-ylmethylene]-1,3-dihydro-indol-2-one], the results for the pIC50 in test [1] and in test [2] were 6.85 and less than 4.70, respectively.

Regarding `O=C1Nc2ccccc2C1=Cc1cc2cc(OCCN3CCCC3)ccc2[nH]1` [IN-013, 3-[5-(2-pyrrolidin-1-yl-ethoxy)-1H-indol-2-ylmethylene]-1,3-dihydro-indol-2-one], the negative logarithm of the IC50 (pIC50) is 7.00 in test [1] and 4.38 in test [2].

On to `CN(c1cccc(Cl)c1)S(=O)(=O)c1ccc2c(c1)C(=Cc1cc3cc(OCCN4CCCC4)ccc3[nH]1)C(=O)N2` [IN-048, 2-oxo-3-[5-(2-pyrrolidin-1-yl-ethoxy)-1H-indol-2-ylmethylene]-2,3-dihydro-1H-indole-5-sulfonic acid (3-chloro-phenyl)-methyl-amide], for which the figures for the pIC50 in test [1] and in test [2] were 5.94 and 5.67, respectively.

For `CNS(=O)(=O)c1ccc2c(c1)C(=Cc1cc3ccccc3[nH]1)C(=O)N2` [IN-071, 3-(1H-indol-2-ylmethylene)-2-oxo-2,3-dihydro-1H-indole-5-sulfonic acid methylamide], the figures for the pIC50 in test [1] and in test [2] were 4.94 and 4.66, respectively.

Regarding `COc1ccccc1-c1ccc2c(c1)NC(=O)C2=Cc1cc2cc(OCCN3CCCC3)ccc2[nH]1` [IN-028, 6-(2-methoxy-phenyl)-3-[5-(2-pyrrolidin-1-yl-ethoxy)-1H-indol-2-ylmethylene]-1,3-dihydro-indol-2-one], the pIC50 is 6.18 in test [1] and 5.22 in test [2].

Take `O=C1Nc2ccc(S(=O)(=O)N3CCc4ccccc4C3)cc2C1=Cc1cc2cc(OCCN3CCCC3)ccc2[nH]1` [IN-051, 5-(3,4-dihydro-1H-isoquinoline-2-sulfonyl)-3-[5-(2-pyrrolidin-1-yl-ethoxy)-1H-indol-2-ylmethylene]-1,3-dihydro-indol-2-one]: the pIC50 was 6.43 in test [1] and 5.45 in test [2].
